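Test compounds were applied to cells in 96-well plates for 48 hours at 5 doses. Here, GI50 denotes the concentration required for 50% inhibition of growth.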 Activity calls are given as the source filed them. No stated cut-off is given here; in the data, active = GI50 up to about 1.1 µM and inactive = higher.
What was measured:
Test in all cases: NCI anticancer screen, dose series, 48 h
EKVX = test system: EKVX
HCC 2998 = test system: HCC 2998
HCT-116 = test system: HCT-116
HL-60 = test system: HL-60
HOP-62 = test system: HOP-62
K562 = test system: K562
LOX IMVI = test system: LOX IMVI
M14 = test system: M14
MDA-MB-231 = test system: MDA-MB-231
MOLT-4 = test system: MOLT-4
NCI-H522 = test system: NCI-H522
SF-268 = test system: SF-268
SF-295 = test system: SF-295
SK-MEL-28 = test system: SK-MEL-28
SK-MEL-2 = test system: SK-MEL-2
SK-MEL-5 = test system: SK-MEL-5
UACC-62 = test system: UACC-62
SNB-75 = test system: SNB-75
CCRF-CEM = test system: CCRF-CEM
SR = test system: SR

SMILES | GI50 (EKVX) | GI50 (HCC 2998) | GI50 (HCT-116) | GI50 (HL-60) | GI50 (HOP-62) | GI50 (K562) | GI50 (LOX IMVI) | GI50 (M14) | GI50 (MDA-MB-231) | GI50 (MOLT-4) | GI50 (NCI-H522) | GI50 (SF-268) | GI50 (SF-295) | GI50 (SK-MEL-28) | GI50 (SK-MEL-2) | GI50 (SK-MEL-5) | GI50 (UACC-62) | GI50 (SNB-75) | GI50 (CCRF-CEM) | GI50 (SR)
FC(F)(F)c1nc2cc(SSc3cc4nc(C(F)(F)F)[nH]c4cc3Cl)c(Cl)cc2[nH]1 | > 100 µM (inactive) | > 100 µM (inactive) | > 100 µM (inactive) | > 100 µM (inactive) | > 100 µM (inactive) | > 100 µM (inactive) | > 100 µM (inactive) | > 100 µM (inactive) | > 100 µM (inactive) | > 100 µM (inactive) | 66.4 µM (inactive) | > 100 µM (inactive) | > 100 µM (inactive) | > 100 µM (inactive) | > 100 µM (inactive) | 65.3 µM (inactive) | > 100 µM (inactive) | – | – | –
Oc1cc(-c2ccc(Cl)cc2)cn2c1nc1ccccc12 | > 100 µM (inactive) | – | > 100 µM (inactive) | 2.66 µM (inactive) | 31.3 µM (inactive) | 2.3 µM (inactive) | 1.88 µM (inactive) | > 100 µM (inactive) | > 100 µM (inactive) | – | 2.09 µM (inactive) | > 100 µM (inactive) | > 100 µM (inactive) | > 100 µM (inactive) | – | – | 29.4 µM (inactive) | 16.1 µM (inactive) | – | –
COc1ccc(-c2nc(SCC(=O)N/N=C/c3ccc([N+](=O)[O-])cc3)[nH]c2-c2ccc(OC)cc2)cc1 | 16.4 µM (inactive) | 12.1 µM (inactive) | 8.49 µM (inactive) | 4.07 µM (inactive) | 16.7 µM (inactive) | 7.45 µM (inactive) | 14 µM (inactive) | 12.2 µM (inactive) | 21.2 µM (inactive) | 7.66 µM (inactive) | 6.95 µM (inactive) | 25.7 µM (inactive) | 8.05 µM (inactive) | 21.7 µM (inactive) | 6.47 µM (inactive) | 6.27 µM (inactive) | 7.01 µM (inactive) | 15.2 µM (inactive) | 3.18 µM (inactive) | –
COc1ccc(/C=C2\NC(=S)N(CN3CCCCC3)C2=O)cc1 | 34.4 µM (inactive) | – | 34.6 µM (inactive) | – | > 100 µM (inactive) | 34.5 µM (inactive) | 30.5 µM (inactive) | 50.7 µM (inactive) | > 100 µM (inactive) | 28.6 µM (inactive) | 30.7 µM (inactive) | 18.2 µM (inactive) | 69.7 µM (inactive) | > 100 µM (inactive) | > 100 µM (inactive) | 36.1 µM (inactive) | 44.7 µM (inactive) | 21 µM (inactive) | 39.5 µM (inactive) | 38.1 µM (inactive)
CC(C)CCCC(C)[C@H]1CCC2[C@@H]3CCC4Cc5nc6c(nc5C[C@]4(C)C3CC[C@@]21C)CC1CC[C@@H]2C(CC[C@@]3(C)C2CC[C@@H]3C(C)CCCC(C)C)[C@@]1(C)C6 (stereo not given in full) | > 100 µM (inactive) | – | > 100 µM (inactive) | > 100 µM (inactive) | > 100 µM (inactive) | > 100 µM (inactive) | > 100 µM (inactive) | > 100 µM (inactive) | > 100 µM (inactive) | > 100 µM (inactive) | – | > 100 µM (inactive) | > 100 µM (inactive) | > 100 µM (inactive) | > 100 µM (inactive) | > 100 µM (inactive) | > 100 µM (inactive) | 38.8 µM (inactive) | > 100 µM (inactive) | > 100 µM (inactive)
O=S(=O)(O)c1cc(/N=N/c2c(O)ccc3ccccc23)ccc1/C=C/c1ccc(/N=N/c2c(O)ccc3ccccc23)cc1S(=O)(=O)O | > 100 µM (inactive) | – | > 100 µM (inactive) | – | > 100 µM (inactive) | > 100 µM (inactive) | – | 99.5 µM (inactive) | 40.3 µM (inactive) | – | > 100 µM (inactive) | > 100 µM (inactive) | > 100 µM (inactive) | > 100 µM (inactive) | > 100 µM (inactive) | > 100 µM (inactive) | > 100 µM (inactive) | > 100 µM (inactive) | – | –
C=C1CC2(CCCC3(CC(=C)C(=O)O3)C2(C)C)OC1=O (stereo not given) | 4.02 µM (inactive) | – | 1.44 µM (inactive) | 2.4 µM (inactive) | 13.9 µM (inactive) | 3.38 µM (inactive) | 1.69 µM (inactive) | 2.56 µM (inactive) | 4.95 µM (inactive) | 0.302 µM (active) | 1.46 µM (inactive) | 19.2 µM (inactive) | 16.5 µM (inactive) | 2.05 µM (inactive) | 7.24 µM (inactive) | 14.8 µM (inactive) | 2 µM (inactive) | 16.7 µM (inactive) | 0.437 µM (active) | –
CCCC/C=C1\CCC(CN2CCCCC2)C1=O (stereo not given) | 26.1 µM (inactive) | 8.67 µM (inactive) | 17.8 µM (inactive) | 7.6 µM (inactive) | 33 µM (inactive) | 7.82 µM (inactive) | > 28.9 µM (inactive) | 10.1 µM (inactive) | > 100 µM (inactive) | 8.38 µM (inactive) | – | 32.1 µM (inactive) | 30.5 µM (inactive) | 21.3 µM (inactive) | > 39 µM (inactive) | 26.6 µM (inactive) | 11.4 µM (inactive) | > 100 µM (inactive) | 7.73 µM (inactive) | –
CCC1CCN=C(Cn2cc(C)c(=O)[nH]c2=O)N1 (stereo not given) | > 100 µM (inactive) | > 100 µM (inactive) | > 100 µM (inactive) | – | > 100 µM (inactive) | – | > 100 µM (inactive) | > 100 µM (inactive) | > 100 µM (inactive) | – | > 100 µM (inactive) | > 100 µM (inactive) | > 100 µM (inactive) | > 100 µM (inactive) | > 100 µM (inactive) | > 100 µM (inactive) | > 100 µM (inactive) | > 100 µM (inactive) | 0.201 µM (active) | –
Nc1nc(Br)nc2ncn(C3CC(O)C(CO)O3)c12 (stereo not given) | > 100 µM (inactive) | > 60.8 µM (inactive) | 26.4 µM (inactive) | – | > 100 µM (inactive) | 23.4 µM (inactive) | > 72.9 µM (inactive) | 3.05 µM (inactive) | > 100 µM (inactive) | 0.0212 µM (active) | > 100 µM (inactive) | > 100 µM (inactive) | > 100 µM (inactive) | > 100 µM (inactive) | > 100 µM (inactive) | 60 µM (inactive) | 11.9 µM (inactive) | > 100 µM (inactive) | < 0.01 µM (active) | –
COC12C=C(C)C(CC1)CC2C(=O)O (stereo not given) | > 100 µM (inactive) | > 100 µM (inactive) | > 100 µM (inactive) | > 100 µM (inactive) | > 100 µM (inactive) | > 100 µM (inactive) | > 100 µM (inactive) | > 100 µM (inactive) | – | > 100 µM (inactive) | > 100 µM (inactive) | > 100 µM (inactive) | > 100 µM (inactive) | > 100 µM (inactive) | > 100 µM (inactive) | > 100 µM (inactive) | > 100 µM (inactive) | > 100 µM (inactive) | > 100 µM (inactive) | > 100 µM (inactive)
C=CCSc1ncnc2c1ncn2C1OC(CO)C(O)C1O (stereo not given) | > 100 µM (inactive) | 24.3 µM (inactive) | 20.5 µM (inactive) | 36 µM (inactive) | 35.1 µM (inactive) | 5.35 µM (inactive) | 4.72 µM (inactive) | 33 µM (inactive) | – | 3.58 µM (inactive) | 11.9 µM (inactive) | 34.7 µM (inactive) | 87.5 µM (inactive) | > 100 µM (inactive) | 58.7 µM (inactive) | > 100 µM (inactive) | > 100 µM (inactive) | 65.2 µM (inactive) | > 100 µM (inactive) | > 100 µM (inactive)
CC[C@@H](C)[C@@H]1NC(=O)C(C(C)=O)=C1O | 27.7 µM (inactive) | 30.8 µM (inactive) | 18.7 µM (inactive) | 53.8 µM (inactive) | 18.3 µM (inactive) | 24 µM (inactive) | 26.1 µM (inactive) | 17.1 µM (inactive) | – | 11.4 µM (inactive) | 20.1 µM (inactive) | 24.1 µM (inactive) | 26.9 µM (inactive) | 3.02 µM (inactive) | 15.3 µM (inactive) | 15.6 µM (inactive) | 12.5 µM (inactive) | 25.4 µM (inactive) | 5.19 µM (inactive) | 14.9 µM (inactive)
CCCCCC/C=C1\CCC(CN2CCOCC2)C1=O (stereo not given) | 14.1 µM (inactive) | 19.2 µM (inactive) | 14.4 µM (inactive) | 2.77 µM (inactive) | 18.3 µM (inactive) | 3.07 µM (inactive) | 10.2 µM (inactive) | 14.6 µM (inactive) | – | 5.26 µM (inactive) | 7.87 µM (inactive) | 19.6 µM (inactive) | 17.7 µM (inactive) | 16.9 µM (inactive) | 18.7 µM (inactive) | 18.1 µM (inactive) | 16.8 µM (inactive) | 21 µM (inactive) | 3.24 µM (inactive) | 4.31 µM (inactive)
COC(=O)[C@@]1(C(C)CC(=O)O)CCCCC1=O (stereo not given in full) | > 100 µM (inactive) | > 100 µM (inactive) | > 100 µM (inactive) | > 100 µM (inactive) | > 100 µM (inactive) | > 100 µM (inactive) | 93.8 µM (inactive) | > 100 µM (inactive) | – | > 100 µM (inactive) | > 100 µM (inactive) | > 100 µM (inactive) | > 100 µM (inactive) | > 100 µM (inactive) | > 100 µM (inactive) | > 100 µM (inactive) | > 100 µM (inactive) | > 100 µM (inactive) | > 100 µM (inactive) | 37.8 µM (inactive)

Reference: ChEMBL document CHEMBL1201862, “PubChem BioAssay data set” (2004)
